According to PMC7178819, “6,7-Dimethoxy-2-phenethyl-1,2,3,4-tetrahydroisoquinoline amides and corresponding ester isosteres as multidrug resistance reversers” (Journal of Enzyme Inhibition and Medicinal Chemistry, 2020):

Key:
P-gp [1] = biological target: T1, P-gp (Homo sapiens, UniProt P08183); assay: Inhibition of Calcein-AM transport in MDCK-MDR1 cells; assay type: cell-based; details: Calcein-AM, MDCK-MDR1 cells; mean ± SEM of two experiments
T1 construct: expressed in transfected cells; host or cells: MDCK-MDR1 (Madin-Darby Canine Kidney cells, gift of Prof. P. Borst, NKI-AVL)
Description: These experiments were carried out as previously described by Teodori et al. with minor modifications. Each cell line (30 000 cells per well) was seeded into black CulturePlate 96/wells plate with 100 µL medium and allowed to become confluent overnight. 100 µL of test compounds were solubilised in culture medium and added to monolayers, with final concentrations ranging from 1 nM to 100 µM. 96/Wells plate was incubated for 30 min in a humidified atmosphere 5% CO2 at 37 °C. Calcein-AM was added in 100 µL of Phosphate Buffered Saline (PBS) to yield a final concentration of 2.5 µM and plate was incubated for 30 min in a humidified atmosphere 5% CO2 at 37 °C. Each well was washed 3 times with ice cold PBS. Saline buffer was added to each well and the plate was read with Victor3 (PerkinElmer) at excitation and emission wavelengths of 485 and 535 nm, respectively. In these experimental conditions, Calcein cell accumulation in the absence and in the presence of tested compounds was evaluated and fluorescence basal level was estimated with untreated cells. In treated wells the increase of fluorescence with respect to basal level was measured. EC50 values were determined by fitting the fluorescence increase percentage versus log[dose].
The interaction potency between the designed compounds and P-gp was evaluated by measuring the transport inhibition of the pro-fluorescent probe Calcein-AM, that is a P-gp substrate, in a cell line overexpressing P-gp (MDCK-MDR1)[47]. The P-gp interacting profile was further investigated with two other assays: the Apparent Permeability (Papp) determination (BA/AB) in Caco-2 cell monolayer[48]^,[49], and the ATP cell depletion in the MDCK-MDR1 cell line[50]. […] Papp determination measures the ratio between two fluxes: from the basolateral to apical compartments (BA, representative of passive diffusion) and from the apical to basolateral compartments (AB, representative of active transport). […] In the same manner, if (BA/AB) >2, the compound should probably be classified as a substrate.

P-gp [2] = biological target: T1, P-gp; assay: ATP cell depletion (ATPlite assay) in MDCK-MDR1 cells; assay type: cell-based; details: Yes/No
Description: The MDCK-MDR1 cells were seeded into 96-well microplate in 100 µL of complete medium at a density 20,000 cells per well. The plate was incubated overnight (O/N) in a humidified atmosphere 5% CO2 at 37 °C. The medium was removed and 100 µL of complete medium either alone or containing different concentrations (ranging from 1 to 100 µM) of test compounds was added. The plate was incubated for 2 h in a humidified 5% CO2 atmosphere at 37 °C. 50 µL of mammalian cell lysis solution was added to all wells and the plate shacked for five minutes in an orbital shaker. 50 µL of substrate solution was added to all wells and the plate shacked for five minutes in an orbital shaker. The plate was dark adapted for ten minutes and the luminescence was measured.
(§1) The interaction potency between the designed compounds and P-gp was evaluated by measuring the transport inhibition of the pro-fluorescent probe Calcein-AM, that is a P-gp substrate, in a cell line overexpressing P-gp (MDCK-MDR1)[47]. The P-gp interacting profile was further investigated with two other assays: the Apparent Permeability (Papp) determination (BA/AB) in Caco-2 cell monolayer[48]^,[49], and the ATP cell depletion in the MDCK-MDR1 cell line[50]. Taking into account the results of the combined tests, an interacting compound can be classified as substrate or inhibitor. Papp determination measures the ratio between two fluxes: from the basolateral to apical compartments (BA, representative of passive diffusion) and from the apical to basolateral compartments (AB, representative of active transport). […] In the same manner, if (BA/AB) >2, the compound should probably be classified as a substrate. […] The selectivity of ligands 1–26 was evaluated by detecting their activity towards the other ABC transporters MRP1 and BCRP, by measuring the inhibition of the efflux of Calcein-AM (i.e., also a MRP1 substrate) in cells overexpressing MRP1 (MDCK-MRP1 cells), and the inhibition of the efflux of the fluorescent probe Hoechst 33342 (i.e. a BCRP substrate) in cells overexpressing BCRP (MDCK-BCRP cells), respectively.

[3] = Apparent permeability (Papp) determination (BA/AB) in Caco-2 cell monolayer; assay type: in vitro ADME; details: human, Caco-2 monolayer
Description: Caco-2 cells were seeded onto a Millicell® assay system (Millipore), where a cell monolayer is set in between a filter cell and a receiver plate, at a density of 10 000 cells/well[46]. The culture medium was replaced every 48 h and the cells kept for 21 days in culture. The Trans Epithelial Electrical Resistance (TEER) of the monolayers was measured daily, before and after the experiment, using an epithelial volt-ohmmeter (Millicell®-ERS). Generally, TEER values greater than 1000 Ω for a 21 days culture, are considered optimal.
After 21 days of Caco-2 cell growth, the medium was removed from filter wells and from the receiver plate, which were filled with fresh HBSS buffer (Invitrogen). This procedure was repeated twice, and the plates were incubated at 37 °C for 30 min. After incubation time, the HBSS buffer was removed and drug solutions and reference compounds were added to the filter well at the concentration of 100 µM, while fresh HBSS was added to the receiver plate. The plates were incubated at 37 °C for 120 min. Afterwards, samples were removed from the apical (filter well) and basolateral (receiver plate) side of the monolayer to measure the permeability.
as §1

[4] = Stability test in human plasma (LC-MS/MS); assay type: in vitro ADME; details: human plasma; for half-life at 1 µM: human, 37 °C
Description: Each sample was prepared adding 10 µL of working solution 1 to 100 µL of tested matrix (PBS or human plasma) in micro centrifuge tubes. The obtained solutions correspond to 1 µM of analyte.
After the incubation, the samples were added with 300 µL of ISTD solution and centrifuged (room temperature for 5 min at 10,000 rpm). The supernatants were transferred in auto sampler vials and dried under a gentle stream of nitrogen.
The dried samples were dissolved in 1.0 ml of 10 mM of formic acid in mQ water: acetonitrile 80:20 solution. The obtained sample solutions were analysed by LC-MS/MS methods described in Supplementary material.
For this purpose, a series of experiments were carried out, adding a known amount of analyte in both phosphate buffer solution (PBS) and in human plasma. The samples were analysed by LC-MS/MS method operating in Multiple Reaction Monitoring (MRM) mode[55].
The analyte concentration (1 µM) used during the stability tests is generally smaller than the corresponding Michaelis–Menten constant (KM); therefore, the enzymatic degradation rate is described by a first-order kinetic. Then, by plotting the natural logarithm of the quantitative data versus the incubation time, a linear function can be used and its slope represents the degradation rate (k).

T1 sequence (P08183 whole entry): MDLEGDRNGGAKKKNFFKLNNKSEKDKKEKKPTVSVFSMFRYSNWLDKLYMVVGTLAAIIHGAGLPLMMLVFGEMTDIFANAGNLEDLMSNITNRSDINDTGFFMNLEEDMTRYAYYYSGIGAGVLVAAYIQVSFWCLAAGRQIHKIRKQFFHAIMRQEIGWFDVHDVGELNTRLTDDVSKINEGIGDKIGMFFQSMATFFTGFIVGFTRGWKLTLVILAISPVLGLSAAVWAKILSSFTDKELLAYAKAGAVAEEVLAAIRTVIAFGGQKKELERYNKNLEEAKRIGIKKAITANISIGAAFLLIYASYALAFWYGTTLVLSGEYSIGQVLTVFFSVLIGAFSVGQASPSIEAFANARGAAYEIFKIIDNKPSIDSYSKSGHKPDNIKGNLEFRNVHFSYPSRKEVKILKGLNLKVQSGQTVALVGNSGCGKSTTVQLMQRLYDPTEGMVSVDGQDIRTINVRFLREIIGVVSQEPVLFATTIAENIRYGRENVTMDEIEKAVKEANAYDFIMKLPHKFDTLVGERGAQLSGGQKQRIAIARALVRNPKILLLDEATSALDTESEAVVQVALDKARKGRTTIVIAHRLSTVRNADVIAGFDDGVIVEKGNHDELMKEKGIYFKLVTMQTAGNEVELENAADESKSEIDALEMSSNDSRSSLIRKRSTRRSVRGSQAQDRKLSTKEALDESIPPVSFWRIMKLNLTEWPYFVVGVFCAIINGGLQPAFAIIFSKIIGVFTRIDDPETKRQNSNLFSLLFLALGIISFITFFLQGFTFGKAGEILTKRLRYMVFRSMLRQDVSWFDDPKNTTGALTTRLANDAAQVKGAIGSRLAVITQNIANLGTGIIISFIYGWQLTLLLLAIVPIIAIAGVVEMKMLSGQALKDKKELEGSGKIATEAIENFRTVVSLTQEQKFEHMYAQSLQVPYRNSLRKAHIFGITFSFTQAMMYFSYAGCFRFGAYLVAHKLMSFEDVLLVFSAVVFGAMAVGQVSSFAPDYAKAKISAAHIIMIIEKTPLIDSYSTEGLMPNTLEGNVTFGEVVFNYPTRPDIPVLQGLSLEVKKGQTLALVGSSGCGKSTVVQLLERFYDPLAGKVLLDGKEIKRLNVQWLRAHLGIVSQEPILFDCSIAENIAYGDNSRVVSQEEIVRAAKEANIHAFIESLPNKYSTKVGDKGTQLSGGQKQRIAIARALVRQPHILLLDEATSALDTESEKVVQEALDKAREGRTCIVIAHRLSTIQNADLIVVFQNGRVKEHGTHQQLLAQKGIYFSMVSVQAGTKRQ

Row | SMILES | EC50 (P-gp [1]) [nM] | ATP cell depletion (P-gp [2]) | efflux ratio at 120 min, 100 µM [3] | half-life at 1 µM [4] [h] | t1/2 ([4]; reference compound for enzymatic activity of the batch) [h]
1 | COc1ccc2nccc(C(=O)Nc3ccc(CCN4CCc5cc(OC)c(OC)cc5C4)cc3)c2c1 [Compound 13, N-(4–(2-(6,7-dimethoxy-3,4-dihydroisoquinolin-2(1H)-yl)ethyl)phenyl)-6-methoxyquinoline-4-carboxamide] | 660 ± 130 | No | 6.5 | ≥ 4 | 
2 | COc1cc2c(cc1OC)CN(CCc1ccc(NC(=O)c3cccc4ccccc34)cc1)CC2 [Compound 6, N-(4–(2-(6,7-dimethoxy-3,4-dihydroisoquinolin-2(1H)-yl)ethyl)phenyl)-1-naphthamide] | 670 ± 120 | No | 3.6 | ≥ 4 | 
3 | COc1ccc2nccc(C(=O)Oc3ccc(CCN4CCc5cc(OC)c(OC)cc5C4)cc3)c2c1 [Compound 26, 4–(2-(6,7-Dimethoxy-3,4-dihydroisoquinolin-2(1H)-yl)ethyl)phenyl 6-methoxyquinoline-4-carboxylate] | 1400 ± 260 | No | 8.7 | 2.07 ± 0.45 | 
4 | COc1cc2c(cc1OC)CN(CCc1ccc(OC(=O)c3cnccn3)cc1)CC2 [Compound 24, 4–(2-(6,7-Dimethoxy-3,4-dihydroisoquinolin-2(1H)-yl)ethyl)phenyl pyrazine-2-carboxylate] | 1900 ± 320 | No | 4.9 | 0.7 ± 0.333 | 
5 | COc1ccc(C(=O)Nc2ccc(CCN3CCc4cc(OC)c(OC)cc4C3)cc2)cn1 [Compound 10, N-(4–(2-(6,7-dimethoxy-3,4-dihydroisoquinolin-2(1H)-yl)ethyl)phenyl)-6-methoxynicotinamide] | 2300 ± 440 | No | 7.5 | ≥ 4 | 
6 | COc1cc2c(cc1OC)CN(CCc1ccc(NC(=O)c3ccccc3OC)cc1)CC2 [Compound 2, N-(4–(2-(6,7-dimethoxy-3,4-dihydroisoquinolin-2(1H)-yl)ethyl)phenyl)-2-methoxybenzamide] | 440 ± 82 | No | 5.9 | ≥ 4 | 
7 | COc1cc2c(cc1OC)CN(CCc1ccc(NC(=O)c3cccnc3)cc1)CC2 [Compound 9, N-(4–(2-(6,7-dimethoxy-3,4-dihydroisoquinolin-2(1H)-yl)ethyl)phenyl)nicotinamide] | 6400 ± 1260 | No | 7.3 | ≥ 4 | 

Second part, the molecule after the results:

Row | EC50 (P-gp [1]) [nM] | ATP cell depletion (P-gp [2]) | efflux ratio at 120 min, 100 µM [3] | half-life at 1 µM [4] [h] | t1/2 ([4]; reference compound for enzymatic activity of the batch) [h] | SMILES
8 |  |  |  |  | < 2 | CCOC(=O)C(C)c1cccc(C(=O)c2ccccc2)c1 (stereo not drawn) [KEE, Ketoprofen ethyl ester, reference compound]
9 | 7200 ± 1390 | No | 5.5 | ≥ 4 |  | COc1cc2c(cc1OC)CN(CCc1ccc(NC(=O)c3c(OC)cccc3OC)cc1)CC2 [Compound 4, N-(4–(2-(6,7-dimethoxy-3,4-dihydroisoquinolin-2(1H)-yl)ethyl)phenyl)-2,6-dimethoxybenzamide]
10 |  | Yes^g |  |  |  | COc1cc2c(cc1OC)CN(CCc1ccc(NC(=O)c3cccc4c(=O)c5cccc(OC)c5[nH]c34)cc1)CC2 [elacridar, reference compound]
11 | 120 ± 22 | No | 11.8 | ≥ 4 |  | COc1cc2c(cc1OC)CN(CCc1ccc(NC(=O)c3c(OC)ccc4ccccc34)cc1)CC2 [Compound 7, N-(4–(2-(6,7-dimethoxy-3,4-dihydroisoquinolin-2(1H)-yl)ethyl)phenyl)-2-methoxy-1-naphthamide]
12 | 150 ± 30 | No | 6.2 | ≥ 4 |  | COc1cc2c(cc1OC)CN(CCc1ccc(OC(=O)c3c(OC)cccc3OC)cc1)CC2 [Compound 17, 4–(2-(6,7-Dimethoxy-3,4-dihydroisoquinolin-2(1H)-yl)ethyl)phenyl 2,6-dimethoxybenzoate]
13 | 1900 ± 320 | No | 4.9 | ≥ 4 |  | COc1cc2c(cc1OC)CN(CCc1ccc(NC(=O)c3cnccn3)cc1)CC2 [Compound 11, N-(4–(2-(6,7-dimethoxy-3,4-dihydroisoquinolin-2(1H)-yl)ethyl)phenyl)pyrazine-2-carboxamide]
14 | 9240 ± 1810 | No | 5.6 | ≥ 4 |  | COc1ccc(C(=O)Oc2ccc(CCN3CCc4cc(OC)c(OC)cc4C3)cc2)cn1 [Compound 23, 4–(2-(6,7-Dimethoxy-3,4-dihydroisoquinolin-2(1H)-yl)ethyl)phenyl 6-methoxynicotinate]
15 | 29400 ± 4980 | No | 5 | ≥ 4 |  | COc1cc2c(cc1OC)CN(CCc1ccc(OC(=O)c3cccnc3)cc1)CC2 [Compound 22, 4–(2-(6,7-Dimethoxy-3,4-dihydroisoquinolin-2(1H)-yl)ethyl)phenyl nicotinate]
